According to publication PMC9387934, “Randomized single oral dose phase 1 study of safety, tolerability, and pharmacokinetics of Iminosugar UV-4 Hydrochloride (UV-4B) in healthy subjects” (PLoS Neglected Tropical Diseases, 2022):
Structures can show the parent of a compound that is named as a salt. Where two headings read alike, the source gives them in different places.

Assays:
[1] = set-up: method as in Investigator’s Brochure (IB); settings: rat, average; ref Investigator’s Brochure (IB); cited from earlier work
CYP2A6 = test system: CYP2A6; set-up: method as in Investigator’s Brochure (IB); settings: in vitro; ref Investigator’s Brochure (IB); cited from earlier work
CYP2C9 = test system: CYP2C9; set-up: method as in Investigator’s Brochure (IB); settings: in vitro; ref Investigator’s Brochure (IB); cited from earlier work
CYP2C19 = test system: CYP2C19; set-up: method as in Investigator’s Brochure (IB); settings: in vitro; ref Investigator’s Brochure (IB); cited from earlier work
CYP2E1 = test system: CYP2E1; set-up: method as in Investigator’s Brochure (IB); settings: in vitro; ref Investigator’s Brochure (IB); cited from earlier work
CYP3A4/5 = test system: CYP3A4/5; set-up: method as in Investigator’s Brochure (IB); settings: ref Investigator’s Brochure (IB), cited from earlier work
all ten CYPs = test system: all ten CYPs; set-up: method as in Investigator’s Brochure (IB); settings: all ten CYPs at the tested conditions; ref Investigator’s Brochure (IB); cited from earlier work
ER α-glucosidase enzymes = test system: ER α-glucosidase enzymes; set-up: method as in PMID 32227946; settings: single dose of UV-4; cited from earlier work
[2] = Reproductive toxicity upper limit study in rabbits, 13 days; format: in vivo, rabbit; settings: 50 mg/kg/day
Description: 7. Reproductive toxicity:
UV-4B has been evaluated for developmental and reproductive toxicity in fertility and early embryonic development in rats, embryo-fetal development in rats and rabbits, and pre- and postnatal development in rats. In male and female rats given UV-4B at 8, 20, and 50 mg/kg/day before mating and continuing through Gestation Day 13, a […]
observed at 50 mg/kg/day. […]
count but following a 21-week treatment-free period there was complete recovery in pregnancy and fertility indices However, decrease in testicular weight, sperm motility […]
identify the upper limit of reproductive toxicity, a dose of 50 mg/kg/day for 12 […]
In a study designed to identify the upper limit of reproductive toxicity, a dose of 50 […]
rabbit offspring. The rat and rabbit doses are equivalent to 486 and 966 mg/day, […]
In summary, findings that have been identified in the UV-4B toxicology studies so far include effects on the GI tract (including ulcers/erosions), lymphocytes and lymphoid tissue, reduction in PLT count, and increases in transaminases (AST>ALT). Findings were generally consistent across mouse, dog, and rat, apart from the isolated finding of swollen paws/legs and perioral appearance and red skin which was seen only in the rat. […]

DENV-2 S221 = settings: ref Investigator’s Brochure (IB), cited from earlier work
[3] = set-up: method as in Investigator’s Brochure (IB); settings: mice, 1000 mg/kg single dose; ref Investigator’s Brochure (IB); cited from earlier work
[4] = set-up: method as in Investigator’s Brochure (IB); settings: in vitro; ref Investigator’s Brochure (IB); cited from earlier work
[5] = set-up: method as in Investigator’s Brochure (IB); settings: in vivo; ref Investigator’s Brochure (IB); cited from earlier work
[6] = set-up: method as in Investigator’s Brochure (IB); settings: ref Investigator’s Brochure (IB), cited from earlier work
[7] = set-up: method as in Investigator’s Brochure (IB); settings: 50 mg/kg/day for 12 days; ref Investigator’s Brochure (IB); cited from earlier work
[8] = ICH accelerated stability storage condition; cited from earlier work
[9] = compared with UV-4; cited from earlier work
[10] = rat, cited from earlier work
[11] = dog; cited from earlier work
[12] = cited from earlier work
[13] = cited from earlier work; remark: listed apart in the source
[14] = in vitro; ref Investigator’s Brochure (IB); cited from earlier work
[15] = test system: cultured human lymphocytes; settings: in vitro; ref Investigator’s Brochure (IB); cited from earlier work
[16] = oral, first dose 1 hour before infection, TID for 7 days
[17] = mice, Day 14, at NOAEL 300 mg/kg/day, ref Investigator’s Brochure (IB)
[18] = mouse, 25 TID mg/kg, Day 28 (Recovery)
[19] = mouse, 25 TID mg/kg, dosing phase (Day 14)
[20] = mouse, 100 TID mg/kg (NOAEL), Day 28 (Recovery)

## COCCCCCCCCCN1C[C@H](O)[C@@H](O)[C@H](O)[C@H]1CO [UV-4, N-(9’-methoxynonyl)-1-deoxynojirimycin]
[1]
  Bioavailability: ≥ 99%
CYP2A6
  Direct inhibition of CYP2A6: No clinically relevant direct inhibition
CYP2C9
  Direct inhibition of CYP2C9: No clinically relevant direct inhibition
CYP2C19
  Direct inhibition of CYP2C19: No clinically relevant direct inhibition
CYP2E1
  Direct inhibition of CYP2E1: No clinically relevant direct inhibition
CYP3A4/5; midazolam 1’-hydroxylase
  Direct inhibition of CYP3A4/5: No clinically relevant direct inhibition
CYP3A4/5; testosterone 6β-hydroxylase
  Direct inhibition of CYP3A4/5: weak direct inhibition
  Estimated IC50: > 191 µg/mL
CYP3A4/5; testosterone 6β-hydroxylase, read-out: Estimated IC50
  IC50: > 600 µM
All ten CYPs
  Potential for metabolism-dependent inhibition: no significant potential
ER α-glucosidase enzymes
  Duration of pharmacodynamic effect on the target ER α-glucosidase enzymes: at least 72 hours

## COCCCCCCCCCN1C[C@H](O)[C@@H](O)[C@H](O)[C@H]1CO [UV-4B, N-(9’-methoxynonyl)-1-deoxynojirimycin hydrochloride]
[2]
  Human equivalent of the rabbit dose: 966 mg/day
DENV-2 S221; [16]
  50% effective dose: 5 mg/kg TID
  Minimal effective dose (90% survival rate): 10 mg/kg TID
DENV-2 S221; step-wise minimal effective dose and therapeutic window studies, start 24 or 48 hours after infection
  50% effective dose: 20 mg/kg TID
[3]
  Respiratory function: no adverse treatment-related effects
[4]
  Mutagenicity, mouse lymphoma assay: not found to be mutagenic or clastogenic
[5]
  Mouse bone marrow micronucleus: not found to be mutagenic or clastogenic
[6]; male and female rats, 50 mg/kg/day before mating through Gestation Day 13
  Fertility finding: decreased pregnancy and fertility indices
[6]; rats, all doses (8, 20, and 50 mg/kg/day)
  Finding in males: decreased sperm motility
[7]
  Finding in rat offspring: increase in skeletal malformations
[8]
  Stability trend of drug substance batches: increases in water content
[9]
  Solubility of the hydrochloride salt: higher solubility
[10]; printed men
  Dose with increased WBC and lymphocyte count: ≥ 10 mg/kg/dose, TID
[10]; women [sic]
  Dose with swollen paws/legs and perioral appearance and red skin, paws, and/or feet: < 60 mg/kg/dose, TID
[10]
  Cardiovascular Effects: none observed
  Dose with decreased PLT and reticulocyte count: ≥ 10 mg/kg/dose, TID
  Dose with erosion/ulcer, inflammation, decreased mucus in stomach, hyperplasia/hyperkeratosis: ≥ 25 mg/kg/dose, TID
  Dose with extramedullary hematopoiesis decreased in spleen and liver: 60 mg/kg/dose, TID
  Dose with increased AST and ALT: ≥ 10 mg/kg/dose, TID
[11]
  Dose with decreased PLTs: 2 mg/kg/dose, TID
  Dose with decreased arterial pulse pressure: > 50 mg/kg
  Dose with decreased reticulocytes: 10 mg/kg/dose, TID
  Dose with decreased systolic pressure: > 50 mg/kg
  Dose with decreased thymus weight: ≥ 2 mg/kg/dose, TID
  Dose with increased ALT: ≥ 2 mg/kg/dose, TID
  Dose with increased AST: ≥ 2 mg/kg/dose, TID
  Dose with increased aPTT: ≥ 10 mg/kg/dose, TID
  Dose with increased diastolic pressure: > 50 mg/kg
  Dose with inverted AST/ALT ratio: 10 mg/kg/dose, TID
  Dose with lymphocyte depletion in thymus, spleen, lymph nodes, and GALT: ≥ 2 mg/kg/dose, TID
  Dose with nonformed feces: ≥ 10 mg/kg/dose, TID
  Dose with salivation and vomitus: 60 mg/kg/dose, TID
  Neurologic Effects: none observed
[12]; rat, 25 TID mg/kg
  Vacuoles in kidney (F): P(F)
[12]; rat, 60 TID mg/kg, second symbol (later day)
  Swollen paws/legs and perioral appearance and red skin, paws and/or feet: −
[12]; rat, 60 TID mg/kg
  Decreased lymphocytes in mesenteric lymph node (F): P(F)
[12]; rats, 60 mg/kg/dose TID, Day 1 or Day 2, transient, ref Investigator’s Brochure (IB)
  Possible histamine-like in-life clinical signs: swollen paws/legs and perioral appearance
[12]; rats, TID for seven days, lowest dose exceeded the NOEL, ref Investigator’s Brochure (IB)
  No observed effect level (NOEL): < 10 mg/kg/dose
[12]; rats, first or second daily dose of 60 mg/kg/dose (TID), ref Investigator’s Brochure (IB)
  Time to appearance of histamine-like signs after treatment: ≤ 120 min
[12]; rats, seven days, ref Investigator’s Brochure (IB)
  Finding at 25 mg/kg/dose (TID): dose-limiting erosions/ulcerations in the stomach
[13]; mice, 14 days of TID administration, ref Investigator’s Brochure (IB)
  NOAEL: 300 mg/kg/day
[13]; mice, 14 days, a NOEL was not present at this dose level, ref Investigator’s Brochure (IB)
  No observed effect level (NOEL): < 25 mg/kg/dose
[13]; [17]
  AUC(0-8): 54,435 ng•h/mL
  Mean Cmax: 32,617 ng/mL
[13]; [18]
  Decreased thymus weight (M): −
  Follicular epithelium vacuolation in thyroid: −
  Lymphoid depletion of the thymus (M): −
[13]; [19]
  Decreased thymus weight (M): ↓ (M)
  Lymphoid depletion of the thymus (M): P (M)
[13]; [20]
  Decrease in red cell mass (RBC Count, HGB, and HCT): −
  Decrease in thymus weight: −
  Follicular epithelium vacuolation in thyroid: −
  Lymphoid depletion in thymus: −
  Neutrophilic infiltration and erosion/ulcer rectum (F): −
[14]
  Mutagenicity, Ames bacterial reverse mutation (two assays): not found to be mutagenic or clastogenic
[15]
  Clastogenicity, chromosomal aberration in cultured human lymphocytes: not found to be mutagenic or clastogenic
